# Source: patent US20060074073A1, “Therapeutic combinations comprising poly (ADP-ribose) polymerases inhibitor” (AGOURON PHARMACEUTICALS, INC., priority 2004, published 2006)
# Marks after values point to notes of the source that are not given here.
# Assays:
# human H460 NSCLC cells = experiment: In vitro chemosensitization of standard chemotherapeutic agents; format: cell-based
# PARP = experiment: Tumor PARP catalytic activity, 32P-NAD incorporation in SW620 tumor homogenates of treated animals; format: in vivo, mice; conditions: temozolomide alone, oral gavage
# Procedure: Tumours were excised and were snap frozen in liquid nitrogen and stored at −80° C. until homogenised for analysis. The specimen was defrosted on ice and the wet weight documented. The tissue was homogenised using a Pro 2000 instrument (Pro Scientific Inc, Monroe, Conn., USA) in 3 volumes (i.e. 1 mg plus 3 μl isotonic buffer −7 mM Hepes, 26 mM KCl, 0.1 mM dextran, 0.4 mM EGTA, 0.5 mM MgCl2, 45 mM sucrose, pH 7.8), giving a homogenate with an overall dilution of 1 in 4. The homogenate was kept on ice throughout the process, and homogenisation was performed in 10 second bursts to prevent undue warming of the sample. Prior to assay the samples were further diluted with isotonic buffer where necessary to give a final dilution of 1 in 40 for [^32P]NAD incorporation assay or 1 in 1000 for immunoblot aaasy.
# Briefly, cells were suspended in hypotonic buffer (9 mM HEPES pH 7.8, 4.5% (v/v) dextran, 4.5 mM MgCl2 and 5 mM DTT) at 1.5×10^7/ml on ice for 30 minutes then 9 vol of isotonic buffer (40 mM HEPES pH 7.8, 130 mM KCl, 4% (v/v) dextran, 2 mM EGTA, 2.3 mM MgCl2, 225 mM sucrose and 2.5 mM DTT) was added. The reaction was started by adding 300 μl cells to 100 μl 300 μM NAD^+ containing [^32P]-NAD^+ (Amersham, UK), and terminated by the addition of 2 ml ice cold 10% (w/v) TCA+10% (w/v) sodium pyrophosphate. After 30 min on ice the precipitated ^32P—labelled ADP-ribose polymers were filtered on Whatman GC/C filters (Whatman Intemational Ltd, Kent, UK), washed 5 times with 1% (v/v) TCA/1% (v/v) sodium pyrophosphate, dried and counted. PARP inhibitory IC50 values were calculated from computer-fitted curves (GraphPad Software, Inc., San Diego, Calif.).
# Tumour homogenates were assayed in a similar manner; however, the homogenisation process introduces sufficient DNA damage to maximally stimulate PARP activity and oligonucleotide was not therefore required. Results were expressed in terms of pmol PAR former per mg tumour.
# Preparation of Tumour/Tissue Samples • 1. The frozen tumour samples are weighed. • 2. 3 volumes (i.e. 3 μl solution added for each 1 mg tissue) of isotonic buffer plus DTT is added to the tumour sample. This is stored on ice until and during homogenisation. • 3. The sample is homogenised on ice within a Class II cabinet for 10-second bursts until no detectable macroscopic pieces of tissue are visible. • 4. Sufficient volume of the homogenate is diluted 1 in 10 with isotonic buffer plus DTT to provide an overall dilution of 1 in 40 from the original sample. A final volume of 3 ml is sufficient for triplicate sampling and a subsequent protein assay. • 5. The diluted homogenate is stored on ice and assayed within one hour as below.
# PARP Assay of Tumour/Tissue Samples • 1. ^32P 600 μM NAD solution is prepared fresh on the day of experiment as detailed above. Oligonucleotide stock is removed from storage and defrosted. • 2. Water bath is warmed to 26° C. and set to agitate at 70 oscillations per minute.
# 3. Reaction test tubes are set up as per table A for the QC samples and as per table B for the homogenate.
# • 4. Each QC sample is assayed in triplicate, with T0, +oligo and −oligo samples ×3. (Total of 9 tubes per sample, if low cell counts −oligo samples are omitted.) Homogenates are also assayed in triplicate, with T0 and reaction samples ×3. (Total 6 tubes per sample). • 5. 2 ml ice cold 10% TCA+10% NaPPi is added to the T0 tubes prior to addition of homogenate or cells, to correct for non-specific binding of radio-label to the filter. • 6. Reaction test tubes homogenates and QC cells are warmed in the water bath to 26° C. for 7 minutes. • 7. Each preparation is vortexed briefly and the reaction is started by adding 300 μl of this to each reaction tube. • 8. The reaction is stopped exactly 6 minutes after addition of homogenate by adding 2 ml of ice cold 10% TCA+10% NaPPi and vortexing. • 9. The tube is then incubated on ice for at least one hour prior to filtration. • 10. […]
# SW620 xenograft = experiment: In vivo antitumor efficacy with irinotecan, SW620 xenograft; set-up: species or system mice
# Text: In no combination study was antagonism observed.
# [1] = GI50 single agent/GI50 agent +0.4 μM compound of formula 1 as glucuronate salt
# [2] = GI50 single agent/GI50 agent +0.4 μM Compound I (phosphate salt) instead of glucuronate salt
structure (smiles),measurement,setting,value
O=c1[nH]cc(F)c(=O)[nH]1 [5-Fluorouracil],PF50 (H460),human H460 NSCLC cells; [1],0.92
Nc1nc2nc[nH]c2c(=S)[nH]1 [6-thioguanine],PF50 (H460),human H460 NSCLC cells; [1],1.1
N.N.[Cl][Pt][Cl] [Cisplatin],PF50 (H460),human H460 NSCLC cells; [1],1.2
COc1cccc2c1C(=O)c1c(O)c3c(c(O)c1C2=O)C[C@@](O)(C(=O)CO)C[C@@H]3O[C@H]1C[C@H](N)[C@H](O)[C@H](C)O1 [Doxorubicin],PF50 (H460),human H460 NSCLC cells; [1],1.1
COc1cc([C@@H]2c3cc4c(cc3[C@@H](O[C@@H]3O[C@@H]5CO[C@@H](C)O[C@H]5[C@H](O)[C@H]3O)[C@H]3COC(=O)[C@H]23)OCO4)cc(OC)c1O [Etoposide],PF50 (H460),human H460 NSCLC cells; [2],0.75^b
Nc1ccn([C@@H]2O[C@H](CO)[C@@H](O)C2(F)F)c(=O)n1 [Gemcitabine],PF50 (H460),human H460 NSCLC cells; [1],1.2
O=C1[O][Pt]2([NH][C@@H]3CCCC[C@H]3[NH]2)[O]C1=O [Oxaliplatin],PF50 (H460),human H460 NSCLC cells; [2],0.98^b
CC(=O)O[C@H]1C(=O)[C@@]2(C)[C@H]([C@H](OC(=O)c3ccccc3)[C@]3(O)C[C@H](OC(=O)[C@H](O)[C@@H](NC(=O)c4ccccc4)c4ccccc4)C(C)=C1C3(C)C)[C@]1(OC(C)=O)CO[C@@H]1C[C@@H]2O [Paclitaxel],PF50 (H460),human H460 NSCLC cells; [1],0.77
CCc1c2c(nc3ccc(O)cc13)-c1cc3c(c(=O)n1C2)COC(=O)[C@]3(O)CC [SN-38],PF50 (H460),human H460 NSCLC cells; [1],2.2
"Cn1nnc2c(C(N)=O)ncn2c1=O [Temozolomide, reference compound]",PF50 (H460),human H460 NSCLC cells; [2],3.7^b
same,PARP Activity (%),PARP,100%
CC[C@@]1(O)C(=O)OCc2c1cc1n(c2=O)Cc2cc3c(CN(C)C)c(O)ccc3nc2-1 [Topotecan],PF50 (H460),human H460 NSCLC cells; [1],1.6
"CCc1c2c(nc3ccc(OC(=O)N4CCC(N5CCCCC5)CC4)cc13)-c1cc3c(c(=O)n1C2)COC(=O)[C@]3(O)CC [irinotecan, reference compound]",inhibition of SW620 tumor growth as single agent,"SW620 xenograft; irinotecan 25 mg/kg, QW×3 IP",did not significantly inhibit SW620 tumor growth
same,toxicity,SW620 xenograft; irinotecan single agent groups,No significant toxicity
